Measurements: ChEMBL document CHEMBL1201862, “PubChem BioAssay data set” (2004)
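1) Cells in 96-well plates. 2) Compound, 48 h, 5 concentrations. 3) Linear interpolation between surrounding doses. 4) Unreached endpoint = highest concentration. Abbreviation: GI50, concentration required for 50% inhibition of growth.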 Calls of active or inactive are those of the source. No stated cut-off is given here; in the data, active = GI50 up to about 1.1 µM and inactive = higher.

Legend:
Test in all cases: NCI-60 cell line screen, 48 h
[1] = system: 786-0
[2] = system: A498
[3] = system: A549
[4] = system: ACHN
[5] = system: BT-549
[6] = system: CAKI-1
[7] = system: CCRF-CEM
[8] = system: COLO 205
[9] = system: DU-145
[10] = system: EKVX
[11] = system: HCC 2998
[12] = system: HCT-116
[13] = system: HCT-15
[14] = system: HL-60
[15] = system: HOP-62
[16] = system: HOP-92
[17] = system: HT-29
[18] = system: Hs-578T
[19] = system: IGROV-1
[20] = system: KM12
[21] = system: LOX IMVI
[22] = system: M14
[23] = system: MCF7
[24] = system: MDA-MB-231
[25] = system: MDA-MB-435
[26] = system: MDA-N
[27] = system: MOLT-4
[28] = system: Malme-3M
[29] = system: NCI-H226
[30] = system: NCI-H23
[31] = system: NCI-H460
[32] = system: NCI-H522
[33] = system: NCI/ADR-RES
[34] = system: OVCAR-3
[35] = system: OVCAR-4
[36] = system: OVCAR-5
[37] = system: OVCAR-8
[38] = system: PC-3
[39] = system: RPMI-8226
[40] = system: RXF 393
[41] = system: SF-268
[42] = system: SF-295
[43] = system: SF-539
[44] = system: SK-MEL-28
[45] = system: SK-MEL-2
[46] = system: SK-MEL-5
[47] = system: SK-OV-3
[48] = system: SN12C
[49] = system: SNB-19
[50] = system: SNB-75
[51] = system: SR
[52] = system: SW-620
[53] = system: T47D
[54] = system: TK-10
[55] = system: U-251
[56] = system: UACC-62
[57] = system: UO-31
[58] = system: DLD-1
[59] = system: DMS-114
[60] = system: DMS-273
[61] = system: K562
[62] = system: LXFL 529
[63] = system: KM-20L2
[64] = system: M19-MEL
[65] = system: UACC-257

Q: Which results are given for CSc1nc(SC)c2c(C)c(Br)[nH]c2n1?
A: GI50 [1]: > 100 µM (inactive); GI50 [2]: > 100 µM (inactive); GI50 [3]: > 100 µM (inactive); GI50 [4]: > 100 µM (inactive); GI50 [5]: > 100 µM (inactive); GI50 [6]: > 100 µM (inactive); GI50 [7]: > 100 µM (inactive); GI50 [8]: > 100 µM (inactive); GI50 [9]: > 100 µM (inactive); GI50 [10]: 70.5 µM (inactive); GI50 [11]: > 100 µM (inactive); GI50 [12]: > 100 µM (inactive); GI50 [13]: > 100 µM; GI50 [14]: > 100 µM (inactive); GI50 [15]: > 100 µM (inactive); GI50 [16]: > 100 µM (inactive); GI50 [17]: > 100 µM (inactive); GI50 [18]: > 100 µM (inactive); GI50 [19]: > 100 µM (inactive); GI50 [20]: > 100 µM (inactive); GI50 [21]: > 100 µM (inactive); GI50 [22]: > 100 µM (inactive); GI50 [23]: 30.9 µM (inactive); GI50 [24]: > 100 µM (inactive); GI50 [25]: > 100 µM (inactive); GI50 [26]: > 100 µM (inactive); GI50 [27]: > 100 µM (inactive); GI50 [28]: > 100 µM (inactive); GI50 [29]: > 100 µM (inactive); GI50 [30]: > 100 µM (inactive); GI50 [31]: > 100 µM (inactive); GI50 [32]: > 100 µM (inactive); GI50 [33]: > 100 µM (inactive); GI50 [34]: > 100 µM (inactive); GI50 [35]: > 100 µM (inactive); GI50 [36]: > 100 µM (inactive); GI50 [37]: > 100 µM (inactive); GI50 [38]: > 100 µM (inactive); GI50 [39]: > 100 µM (inactive); GI50 [40]: > 100 µM (inactive); GI50 [41]: > 100 µM (inactive); GI50 [42]: > 100 µM (inactive); GI50 [43]: 54.6 µM (inactive); GI50 [44]: > 100 µM (inactive); GI50 [45]: > 100 µM (inactive); GI50 [46]: > 100 µM (inactive); GI50 [47]: > 100 µM (inactive); GI50 [48]: > 100 µM (inactive); GI50 [49]: > 100 µM (inactive); GI50 [50]: > 100 µM (inactive); GI50 [51]: > 100 µM (inactive); GI50 [52]: > 100 µM (inactive); GI50 [53]: > 100 µM (inactive); GI50 [54]: > 100 µM (inactive); GI50 [55]: > 100 µM (inactive); GI50 [56]: > 100 µM (inactive); GI50 [57]: > 100 µM (inactive)

Q: For COc1cc([C@H]2Oc3cc(O)c4c(=O)cc(-c5ccccc5)oc4c3O[C@@H]2CO)ccc1O, which GI50 [1] is on record?
A: 23.4 µM (inactive)

Q: What about the GI50 [2] of the same compound?
A: 21.9 µM (inactive)

Q: And the GI50 [4]?
A: 20.3 µM (inactive)

Q: And the GI50 [6]?
A: 26.4 µM (inactive)

Q: What about the GI50 [7] of the same compound?
A: 65.6 µM (inactive)

Q: And the GI50 [8]?
A: 69.5 µM (inactive)

Q: And the GI50 [58]?
A: 46.9 µM (inactive)

Q: What about the GI50 [59] of the same compound?
A: 28 µM (inactive)

Q: What about the GI50 [60] of the same compound?
A: 51.3 µM (inactive)

Q: And the GI50 [11]?
A: 58.5 µM (inactive)

Q: What about the GI50 [12] of the same compound?
A: 30.1 µM (inactive)

Q: What about the GI50 [13] of the same compound?
A: 91.2 µM

Q: And the GI50 [14]?
A: 50.8 µM (inactive)

Q: And the GI50 [15]?
A: 55.1 µM (inactive)

Q: And the GI50 [16]?
A: 29.7 µM (inactive)

Q: What about the GI50 [19] of the same compound?
A: 34 µM (inactive)

Q: What about the GI50 [61] of the same compound?
A: 48.4 µM (inactive)

Q: And the GI50 [62]?
A: 21.6 µM (inactive)

Q: And the GI50 [22]?
A: 39 µM (inactive)

Q: And the GI50 [27]?
A: 46.5 µM (inactive)

Q: What about the GI50 [28] of the same compound?
A: 19 µM (inactive)

Q: And the GI50 [29]?
A: 32.4 µM (inactive)

Q: And the GI50 [30]?
A: 22.5 µM (inactive)

Q: What about the GI50 [32] of the same compound?
A: 19.3 µM (inactive)

Q: What about the GI50 [35] of the same compound?
A: 19.9 µM (inactive)

Q: What about the GI50 [39] of the same compound?
A: 59.8 µM (inactive)

Q: What about the GI50 [41] of the same compound?
A: 15.6 µM (inactive)

Q: What about the GI50 [43] of the same compound?
A: 22.2 µM (inactive)

Q: What about the GI50 [44] of the same compound?
A: 28.6 µM (inactive)

Q: What about the GI50 [45] of the same compound?
A: 40.4 µM (inactive)

Q: And the GI50 [47]?
A: 27.4 µM (inactive)

Q: And the GI50 [48]?
A: 32.9 µM (inactive)

Q: What about the GI50 [50] of the same compound?
A: 16.8 µM (inactive)

Q: What about the GI50 [51] of the same compound?
A: 29.4 µM (inactive)

Q: And the GI50 [56]?
A: 25.1 µM (inactive)

Q: What about the GI50 [57] of the same compound?
A: 13.8 µM (inactive)

Q: Which GI50 [1] does the source give for CC(/C(=N\Nc1ccccc1)c1ccc(O)cc1)C1C(=O)Oc2ccccc21 (stereo not drawn) here?
A: > 100 µM (inactive)

Q: What about the GI50 [2] of the same compound?
A: > 100 µM (inactive)

Q: And the GI50 [3]?
A: > 100 µM (inactive)

Q: And the GI50 [4]?
A: > 100 µM (inactive)

Q: What about the GI50 [6] of the same compound?
A: > 100 µM (inactive)

Q: What about the GI50 [7] of the same compound?
A: > 100 µM (inactive)

Q: And the GI50 [8]?
A: > 100 µM (inactive)

Q: And the GI50 [58]?
A: > 100 µM (inactive)

Q: And the GI50 [59]?
A: > 100 µM (inactive)

Q: What about the GI50 [60] of the same compound?
A: > 100 µM (inactive)

Q: What about the GI50 [10] of the same compound?
A: > 100 µM (inactive)

Q: What about the GI50 [11] of the same compound?
A: > 100 µM (inactive)

Q: What about the GI50 [12] of the same compound?
A: > 100 µM (inactive)

Q: And the GI50 [13]?
A: > 100 µM

Q: And the GI50 [14]?
A: > 100 µM (inactive)

Q: And the GI50 [15]?
A: > 100 µM (inactive)

Q: And the GI50 [17]?
A: > 100 µM (inactive)

Q: What about the GI50 [19] of the same compound?
A: > 100 µM (inactive)

Q: And the GI50 [61]?
A: > 100 µM (inactive)

Q: What about the GI50 [63] of the same compound?
A: > 100 µM (inactive)

Q: And the GI50 [20]?
A: > 100 µM (inactive)

Q: And the GI50 [21]?
A: > 100 µM (inactive)

Q: And the GI50 [62]?
A: > 100 µM (inactive)

Q: And the GI50 [22]?
A: > 100 µM (inactive)

Q: What about the GI50 [64] of the same compound?
A: > 100 µM (inactive)

Q: What about the GI50 [27] of the same compound?
A: > 100 µM (inactive)

Q: And the GI50 [28]?
A: > 100 µM (inactive)

Q: And the GI50 [31]?
A: > 100 µM (inactive)

Q: What about the GI50 [34] of the same compound?
A: > 100 µM (inactive)

Q: And the GI50 [35]?
A: > 100 µM (inactive)

Q: What about the GI50 [37] of the same compound?
A: > 100 µM (inactive)

Q: And the GI50 [39]?
A: > 100 µM (inactive)

Q: And the GI50 [40]?
A: > 100 µM (inactive)

Q: What about the GI50 [42] of the same compound?
A: > 100 µM (inactive)

Q: And the GI50 [43]?
A: > 100 µM (inactive)

Q: What about the GI50 [45] of the same compound?
A: > 100 µM (inactive)

Q: What about the GI50 [46] of the same compound?
A: > 100 µM (inactive)

Q: What about the GI50 [48] of the same compound?
A: > 100 µM (inactive)

Q: What about the GI50 [49] of the same compound?
A: > 100 µM (inactive)

Q: What about the GI50 [50] of the same compound?
A: 55.7 µM (inactive)

Q: What about the GI50 [51] of the same compound?
A: > 100 µM (inactive)

Q: What about the GI50 [52] of the same compound?
A: > 100 µM (inactive)

Q: What about the GI50 [54] of the same compound?
A: > 100 µM (inactive)

Q: What about the GI50 [55] of the same compound?
A: > 100 µM (inactive)

Q: And the GI50 [65]?
A: > 100 µM (inactive)

Q: What about the GI50 [56] of the same compound?
A: > 100 µM (inactive)

Q: What about the GI50 [57] of the same compound?
A: > 100 µM (inactive)

Q: How did the GI50 [2] turn out when COc1cc(C2c3cc4c(cc3[C@@H](NC3CCN(Cc5ccccc5)CC3)C3COC(=O)[C@H]23)OCO4)cc(OC)c1O (stereo partly drawn) was run?
A: 0.136 µM (active)

Q: What about the GI50 [3] of the same compound?
A: 0.0133 µM (active)

Q: What about the GI50 [7] of the same compound?
A: 0.0251 µM (active)

Q: What about the GI50 [58] of the same compound?
A: 0.408 µM (active)

Q: What about the GI50 [11] of the same compound?
A: 0.274 µM (active)

Q: What about the GI50 [12] of the same compound?
A: 0.195 µM (active)

Q: And the GI50 [13]?
A: 0.132 µM

Q: And the GI50 [14]?
A: 0.0189 µM (active)

Q: And the GI50 [15]?
A: 0.0282 µM (active)

Q: And the GI50 [17]?
A: 0.243 µM (active)

Q: What about the GI50 [63] of the same compound?
A: 0.354 µM (active)

Q: What about the GI50 [20] of the same compound?
A: 0.33 µM (active)

Q: What about the GI50 [64] of the same compound?
A: 0.308 µM (active)

Q: What about the GI50 [29] of the same compound?
A: 0.0137 µM (active)

Q: What about the GI50 [34] of the same compound?
A: 0.277 µM (active)

Q: And the GI50 [36]?
A: 0.34 µM (active)

Q: What about the GI50 [37] of the same compound?
A: 0.161 µM (active)

Q: And the GI50 [41]?
A: 0.203 µM (active)

Q: What about the GI50 [42] of the same compound?
A: 0.0311 µM (active)

Q: What about the GI50 [43] of the same compound?
A: 0.0706 µM (active)

Q: And the GI50 [44]?
A: 0.627 µM (active)

Q: And the GI50 [47]?
A: 0.0457 µM (active)

Q: What about the GI50 [49] of the same compound?
A: 0.177 µM (active)
